# Experimental data reported in ChEMBL document CHEMBL4376829, “Discovery and biological evaluation of vinylsulfonamide derivatives as highly potent, covalent TEAD autopalmitoylation inhibitors” (Eur J Med Chem, 2019).
# Activity calls are given as the source filed them. No cut-off for these calls is given here.
# Experiments:
# [1] = biological target: T1, Transcriptional enhancer factor TEF-3 (Homo sapiens, UniProt Q15561); assay: Inhibition of N-terminal His6 tagged human TEAD4-YBD (217 to 434 residues) expressed in Escherichia coli C43 (DE3) cells assessed as reduction in autopalmitoylation at 200 nM preincubated for 2 hrs followed by palmitoyl alkyne-coenzyme A addition and measured after 30 mins immunoblot analysis relative to control
# T1 sequence (Q15561 whole entry, the tested form may be a part): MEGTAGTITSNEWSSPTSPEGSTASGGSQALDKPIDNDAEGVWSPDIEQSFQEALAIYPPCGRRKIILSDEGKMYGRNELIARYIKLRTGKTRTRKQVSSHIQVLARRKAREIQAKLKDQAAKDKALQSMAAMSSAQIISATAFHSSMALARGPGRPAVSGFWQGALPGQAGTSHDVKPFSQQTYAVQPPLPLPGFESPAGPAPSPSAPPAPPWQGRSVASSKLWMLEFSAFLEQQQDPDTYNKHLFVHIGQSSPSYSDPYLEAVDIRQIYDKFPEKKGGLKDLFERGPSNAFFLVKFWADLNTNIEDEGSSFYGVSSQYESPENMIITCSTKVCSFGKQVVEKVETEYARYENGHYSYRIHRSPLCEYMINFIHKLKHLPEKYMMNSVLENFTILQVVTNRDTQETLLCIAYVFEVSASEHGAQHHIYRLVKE
# [2] = system: Transcriptional enhancer factor TEF-3 (Homo sapiens), Q15561 [C335A]; assay: Binding affinity to TEAD4-YBD C335A mutant (unknown origin) assessed as change in melting temperature by SYPRO-dye based thermal shift assay
# Transcriptional enhancer factor TEF-3 (Homo sapiens), Q15561 [C335A], sequence (Q15561 whole entry C335A): as the sequence (Q15561 whole entry, the tested form may be a part) above, with C335A counted along it
# [3] = species: Homo sapiens; assay: Inhibition of TEAD transcriptional activity in human HCT116 cells assessed as reduction in CYR61 expression by qRT-PCR analysis; type: cell-based
# [4] = biological target: T1, Transcriptional enhancer factor TEF-3; assay: Inhibition of human HEK293T cells derived YAP interaction with N-terminal His-tagged human TEAD4 YBD domain (217 to 434 residues) expressed in Escherichia coli C43 (DE3) cells at 25 to 200 uM incubated for 2 hrs with TEAD4 followed by YAP lysate addition and measured after 4 hrs by immunoblotting analysis
# [5] = biological target: Tyrosine-protein kinase JAK3 (Homo sapiens) (UniProt P52333); assay: Inhibition of recombinant human JAK3 (781 to end residues) at 10 uM using GGEEEEYFELVKKKK as substrate measured after 40 mins in presence of [gamm33P]ATP by scintillation counting method relative to control
# [6] = biological target: Tyrosine-protein kinase ITK/TSK (Homo sapiens) (UniProt Q08881); assay: Inhibition of recombinant human ITK (352 to 617 residues) at 10 uM using myelin basic protein as substrate measured after 40 mins in presence of [gamm33P]ATP by scintillation counting method relative to control
# [7] = biological target: Insulin receptor (Homo sapiens) (UniProt P06213); assay: Inhibition of recombinant human IR (1005 to 1310 residues) at 10 uM using KKSRGDYMTMQIG as substrate after 40 mins in presence of [gamma33P]ATP by scintillation counting method relative to control
# [8] = biological target: Tyrosine-protein kinase Fgr (Homo sapiens) (UniProt P09769); assay: Inhibition of recombinant human FGR (2 to end residues) at 10 uM using poly(Glu, Tyr) 4:1 as substrate after 40 mins in presence of [gamma33P]ATP by scintillation counting method relative to control
# Tyrosine-protein kinase Fgr (Homo sapiens), sequence (P09769 2-529 limits assumed): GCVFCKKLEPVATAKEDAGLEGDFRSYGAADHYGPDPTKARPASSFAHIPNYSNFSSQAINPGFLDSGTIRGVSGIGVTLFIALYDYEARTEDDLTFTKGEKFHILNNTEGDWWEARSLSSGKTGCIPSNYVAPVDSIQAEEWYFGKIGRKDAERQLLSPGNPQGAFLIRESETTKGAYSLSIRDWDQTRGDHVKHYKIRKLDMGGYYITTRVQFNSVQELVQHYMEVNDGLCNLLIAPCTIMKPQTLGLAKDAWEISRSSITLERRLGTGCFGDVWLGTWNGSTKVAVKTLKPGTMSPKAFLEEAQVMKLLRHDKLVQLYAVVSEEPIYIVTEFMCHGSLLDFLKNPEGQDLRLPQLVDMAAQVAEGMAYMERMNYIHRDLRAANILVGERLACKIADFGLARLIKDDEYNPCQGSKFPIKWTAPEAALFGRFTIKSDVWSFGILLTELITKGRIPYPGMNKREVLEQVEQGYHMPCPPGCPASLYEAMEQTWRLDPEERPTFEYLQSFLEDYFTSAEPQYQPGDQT
# [9] = biological target: Focal adhesion kinase 1 (Homo sapiens) (UniProt Q05397); assay: Inhibition of recombinant human FAK (411 to 686 residues) at 10 uM using EEEEYEEEEEEYYIIEEEEEEYEEEEEEYYEEEEEEKKKK as substrate measured after 40 mins in presence of [gamma33P]ATP by scintillation counting method relative to control
# Focal adhesion kinase 1 (Homo sapiens), sequence (Q05397 2-1052 limits assumed): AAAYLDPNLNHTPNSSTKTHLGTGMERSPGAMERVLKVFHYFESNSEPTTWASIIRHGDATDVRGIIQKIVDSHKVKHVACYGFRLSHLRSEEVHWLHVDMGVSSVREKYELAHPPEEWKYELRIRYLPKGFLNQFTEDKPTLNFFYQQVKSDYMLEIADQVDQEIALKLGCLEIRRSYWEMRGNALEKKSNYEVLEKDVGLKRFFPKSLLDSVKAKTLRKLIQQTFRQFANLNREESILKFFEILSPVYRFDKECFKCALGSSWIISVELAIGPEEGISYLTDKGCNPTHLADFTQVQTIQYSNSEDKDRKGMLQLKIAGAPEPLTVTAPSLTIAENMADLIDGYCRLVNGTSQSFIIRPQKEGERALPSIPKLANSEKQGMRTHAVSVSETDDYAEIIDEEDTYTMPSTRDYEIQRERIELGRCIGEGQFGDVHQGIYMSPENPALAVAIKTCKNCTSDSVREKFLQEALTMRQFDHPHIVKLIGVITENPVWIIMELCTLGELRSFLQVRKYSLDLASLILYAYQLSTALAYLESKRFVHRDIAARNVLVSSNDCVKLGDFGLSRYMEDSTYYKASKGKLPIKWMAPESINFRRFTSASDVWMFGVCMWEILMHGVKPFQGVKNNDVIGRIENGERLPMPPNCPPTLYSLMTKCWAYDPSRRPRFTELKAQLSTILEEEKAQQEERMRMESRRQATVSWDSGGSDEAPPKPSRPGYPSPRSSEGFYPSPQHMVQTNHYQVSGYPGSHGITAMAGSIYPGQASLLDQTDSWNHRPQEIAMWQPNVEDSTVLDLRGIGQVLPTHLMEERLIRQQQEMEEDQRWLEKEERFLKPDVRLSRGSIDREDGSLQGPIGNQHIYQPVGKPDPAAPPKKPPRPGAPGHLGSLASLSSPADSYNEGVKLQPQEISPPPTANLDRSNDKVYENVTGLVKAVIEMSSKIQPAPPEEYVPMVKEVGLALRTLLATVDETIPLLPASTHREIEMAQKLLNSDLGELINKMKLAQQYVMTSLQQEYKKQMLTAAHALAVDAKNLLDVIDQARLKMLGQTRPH
# [10] = biological target: Platelet-derived growth factor receptor alpha (Homo sapiens) (UniProt P16234); assay: Inhibition of recombinant human PDGFRalpha (550 to end residues) at 10 uM using poly(Glu, Tyr) 4:1 as substrate measured after 40 mins in presence of [gamma33P]ATP by scintillation counting method relative to control
# [11] = biological target: CDK6/cyclin D3 (Homo sapiens) (UniProt P30281+Q00534); assay: Inhibition of recombinant full-length human CDK6/cyclinD3 at 10 uM using histone H1 as substrate measured after 40 mins in presence of [gamma33P]ATP by scintillation counting method relative to control; type: protein-complex assay
# [12] = biological target: CDK4/Cyclin D3 (Homo sapiens) (UniProt P11802+P30281); assay: Inhibition of recombinant full-length human CDK4/cyclinD3 at 10 uM using Rb fragment as substrate measured after 40 mins in presence of [gamma33P]ATP by scintillation counting method relative to control; type: protein-complex assay
# [13] = biological target: CDK2/Cyclin A2 (Homo sapiens) (UniProt P24941+P20248); assay: Inhibition of recombinant full-length human CDK2/cyclinA at 10 uM using histone H1 as substrate measured after 40 mins in presence of [gamma33P]ATP by scintillation counting method relative to control; type: protein-complex assay
# [14] = biological target: Cyclin-dependent kinase 1/cyclin B1 (Homo sapiens) (UniProt P06493+P14635); assay: Inhibition of full-length recombinant human CDK1/cyclinB at 10 uM using histone H1 as substrate after 40 mins by in presence of [gamma33P]ATP by scintillation counting method relative to control; type: protein-complex assay
# [15] = species: Homo sapiens; assay: Inhibition of recombinant human MAPKAPK2 A399G mutant (46 to end residues) at 10 uM using KKLNRTLSVA as substrate measured after 40 mins in presence of [gamma33P]ATP by scintillation counting method relative to control
# [16] = biological target: Protein-tyrosine kinase 6 (Homo sapiens) (UniProt Q13882); assay: Inhibition of full-length recombinant human BRK at 10 uM using poly(Glu, Tyr) 4:1 as substrate measured after 40 mins in presence of [gamma33P]ATP by scintillation counting method relative to control
# [17] = species: Homo sapiens; assay: Inhibition of recombinant full length human Aurora A I31F mutant at 10 uM using LRRASLG as substrate incubated for 40 mins in presence of [gamma-33P]-ATP by scintillation counting method relative to control
# [18] = species: Homo sapiens; assay: Inhibition of recombinant full-length human ATRIP/ATR M211T mutant at 10 uM using GST-cMyc-p53 as substrate measured after 40 mins by fluorescence assay relative to control
# [19] = biological target: Tyrosine-protein kinase ABL2 (Homo sapiens) (UniProt P42684); assay: Inhibition of recombinant human ARG (38 to end residues) at 10 uM using EAIYAAPFAKKK as substrate measured after 40 mins in presence of [gamma33P]ATP by scintillation counting method relative to control
# Tyrosine-protein kinase ABL2 (Homo sapiens), sequence (P42684 whole entry, the tested form may be a part): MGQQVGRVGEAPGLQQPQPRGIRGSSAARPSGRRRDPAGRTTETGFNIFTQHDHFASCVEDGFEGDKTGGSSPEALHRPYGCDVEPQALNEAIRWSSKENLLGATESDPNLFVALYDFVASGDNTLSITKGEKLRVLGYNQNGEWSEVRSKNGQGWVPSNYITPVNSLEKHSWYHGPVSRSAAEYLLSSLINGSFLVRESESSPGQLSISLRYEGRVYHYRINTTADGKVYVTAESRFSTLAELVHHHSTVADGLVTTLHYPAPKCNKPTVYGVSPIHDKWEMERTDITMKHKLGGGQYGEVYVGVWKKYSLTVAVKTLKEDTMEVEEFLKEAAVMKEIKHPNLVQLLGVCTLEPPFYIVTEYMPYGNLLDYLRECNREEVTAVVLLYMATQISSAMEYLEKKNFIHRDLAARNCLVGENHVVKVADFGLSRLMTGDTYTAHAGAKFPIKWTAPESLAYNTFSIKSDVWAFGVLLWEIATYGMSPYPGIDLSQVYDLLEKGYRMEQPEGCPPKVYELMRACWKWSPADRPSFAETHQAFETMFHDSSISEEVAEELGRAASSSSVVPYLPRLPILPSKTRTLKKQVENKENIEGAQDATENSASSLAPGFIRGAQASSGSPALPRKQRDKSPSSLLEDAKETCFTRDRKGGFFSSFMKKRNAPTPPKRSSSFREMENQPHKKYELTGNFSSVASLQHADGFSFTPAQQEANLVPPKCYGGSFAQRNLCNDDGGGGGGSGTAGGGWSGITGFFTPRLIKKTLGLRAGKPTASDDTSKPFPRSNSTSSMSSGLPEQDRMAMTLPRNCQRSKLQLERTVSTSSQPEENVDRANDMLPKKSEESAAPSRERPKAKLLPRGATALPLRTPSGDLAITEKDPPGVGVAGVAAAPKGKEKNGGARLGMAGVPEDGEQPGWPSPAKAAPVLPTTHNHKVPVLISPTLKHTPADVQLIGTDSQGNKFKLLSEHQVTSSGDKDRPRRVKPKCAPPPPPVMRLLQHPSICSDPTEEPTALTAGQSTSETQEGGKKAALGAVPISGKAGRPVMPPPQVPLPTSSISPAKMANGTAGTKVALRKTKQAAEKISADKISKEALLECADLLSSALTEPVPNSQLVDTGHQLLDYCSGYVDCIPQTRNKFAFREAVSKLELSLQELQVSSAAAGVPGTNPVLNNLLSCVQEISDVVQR
# [20] = biological target: Serine/threonine-protein kinase ULK1 (Homo sapiens) (UniProt O75385); assay: Inhibition of recombinant human ULK1 (1 to 314 residues) at 10 uM using casein as substrate measured after 40 mins in presence of [gamm33P]ATP by scintillation counting method relative to control
# [21] = biological target: Serine/threonine-protein kinase VRK1 (Homo sapiens) (UniProt Q99986); assay: Inhibition of human VRK1 at 10 uM by radiometric assay relative to control
# [22] = biological target: Protein arginine N-methyltransferase 6 (Homo sapiens) (UniProt Q96LA8); assay: Inhibition of human PRMT6 at 10 uM relative to control
# [23] = biological target: DNA (cytosine-5)-methyltransferase 1 (Homo sapiens) (UniProt P26358); assay: Inhibition of human DNMT1 at 10 uM after 1 hr by radioisotope-based assay relative to control
# DNA (cytosine-5)-methyltransferase 1 (Homo sapiens), sequence (P26358 whole entry): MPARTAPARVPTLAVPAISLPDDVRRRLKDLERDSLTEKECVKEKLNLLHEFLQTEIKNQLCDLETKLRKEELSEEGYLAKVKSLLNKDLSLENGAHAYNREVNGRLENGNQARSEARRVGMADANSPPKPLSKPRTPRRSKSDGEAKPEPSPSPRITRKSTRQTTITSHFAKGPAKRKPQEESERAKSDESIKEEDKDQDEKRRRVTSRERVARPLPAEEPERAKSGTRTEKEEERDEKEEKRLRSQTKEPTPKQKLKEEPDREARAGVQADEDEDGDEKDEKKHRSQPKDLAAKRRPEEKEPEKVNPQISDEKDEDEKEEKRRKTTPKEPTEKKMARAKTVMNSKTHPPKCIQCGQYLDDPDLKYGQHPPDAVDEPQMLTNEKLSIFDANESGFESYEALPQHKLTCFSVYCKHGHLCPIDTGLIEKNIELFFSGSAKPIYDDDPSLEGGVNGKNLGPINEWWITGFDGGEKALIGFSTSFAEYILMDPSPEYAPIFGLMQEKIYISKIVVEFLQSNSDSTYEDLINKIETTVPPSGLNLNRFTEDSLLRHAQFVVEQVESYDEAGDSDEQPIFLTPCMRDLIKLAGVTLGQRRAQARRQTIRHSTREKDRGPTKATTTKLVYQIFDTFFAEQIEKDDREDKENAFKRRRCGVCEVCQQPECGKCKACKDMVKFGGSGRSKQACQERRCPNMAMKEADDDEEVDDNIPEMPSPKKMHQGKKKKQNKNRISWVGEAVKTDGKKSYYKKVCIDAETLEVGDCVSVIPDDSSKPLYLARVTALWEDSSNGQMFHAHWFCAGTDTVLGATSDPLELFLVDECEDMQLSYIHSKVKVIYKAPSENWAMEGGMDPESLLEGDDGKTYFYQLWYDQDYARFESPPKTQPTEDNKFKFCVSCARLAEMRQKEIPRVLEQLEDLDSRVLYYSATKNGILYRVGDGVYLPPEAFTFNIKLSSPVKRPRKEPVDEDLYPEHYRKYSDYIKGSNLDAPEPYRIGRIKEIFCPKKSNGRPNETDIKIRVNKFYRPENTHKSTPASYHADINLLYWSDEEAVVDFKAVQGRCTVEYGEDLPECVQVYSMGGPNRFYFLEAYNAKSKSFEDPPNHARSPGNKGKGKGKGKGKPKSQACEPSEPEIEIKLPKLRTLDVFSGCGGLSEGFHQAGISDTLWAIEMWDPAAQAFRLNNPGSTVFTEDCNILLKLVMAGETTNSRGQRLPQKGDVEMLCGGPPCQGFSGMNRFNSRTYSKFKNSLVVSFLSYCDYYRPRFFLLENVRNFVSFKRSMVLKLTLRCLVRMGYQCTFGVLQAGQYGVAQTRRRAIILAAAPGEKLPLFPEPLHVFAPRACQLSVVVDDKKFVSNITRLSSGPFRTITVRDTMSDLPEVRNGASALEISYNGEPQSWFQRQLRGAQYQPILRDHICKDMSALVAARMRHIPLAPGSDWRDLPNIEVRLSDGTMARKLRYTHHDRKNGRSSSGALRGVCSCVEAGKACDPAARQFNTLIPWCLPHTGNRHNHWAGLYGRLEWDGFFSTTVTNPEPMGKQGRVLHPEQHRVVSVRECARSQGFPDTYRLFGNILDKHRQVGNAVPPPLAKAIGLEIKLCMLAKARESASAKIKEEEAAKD
# [24] = biological target: CREB-binding protein (Homo sapiens) (UniProt Q92793); assay: Inhibition of human CBP-BRD at 10 uM relative to control
# [25] = biological target: Histone acetyltransferase p300 (Homo sapiens) (UniProt Q09472); assay: Displacement of [3H]-acetyl-CoA from human P300 after 60 mins by microbeta counting method
# [26] = biological target: 3-phosphoinositide-dependent protein kinase 1 (Homo sapiens) (UniProt O15530); assay: Inhibition of recombinant human PDK1 (52 to end residues) at 10 uM using KTFCGTPEYLAPEVRREPRILSEEEQEMFRDFDYIADWC as substrate measured after 40 mins in presence of [gamma33P]ATP by scintillation counting method relative to control
structure (smiles),measurement,setting,value
C=CS(=O)(=O)Nc1ccc(Cc2ccc3ccccc3c2)cc1,inhibition,[1],72.5%
same,ΔTm,[2],5.2 °C
same,inhibition,[3],Dose-dependent effect
same,inhibition,[4],Active
same,inhibition,[5],5%
same,inhibition,[6],6%
same,inhibition,[7],-10%
same,inhibition,[8],15%
same,inhibition,[9],-3%
same,inhibition,[10],1%
same,inhibition,[11],-1%
same,inhibition,[12],11%
same,inhibition,[13],10%
same,inhibition,[14],4%
same,inhibition,[15],-6%
same,inhibition,[16],-6%
same,inhibition,[17],-10%
same,inhibition,[18],3%
same,inhibition,[19],16%
same,inhibition,[20],7%
same,inhibition,[21],3%
same,inhibition,[22],7%
same,inhibition,[23],15%
same,inhibition,[24],10%
same,inhibition,[25],-3%
same,inhibition,[26],3%
